Usually solubility stands for how much of the substance goes into solution per volume. By pEC50 is commonly meant the negative decadic logarithm of the EC50, by convention in mol/L. Lower therefore signals a large EC50. The term pIC50 denotes the IC50 on a negative log10 scale, so that one unit is a factor of ten. Low values mean a large IC50, high ones a small IC50.

Data set [1] in a line: Solubility (Test F), McIlvaine buffer pH 6.5. The class given is physicochemical. The conditions noted are these: McIlvaine buffer pH 6.5, 25° C., 24 to 72 h, theoretical maximum 200 μM; for solubility: disodium hydrogenphosphate-citric acid (McIlvaine) buffer, 25 °C, pH 6.5, aqueous buffer, thermodynamic from solid.
The target of data set [2] is T1, Human NLRP3 (Homo sapiens (Human), UniProt Q96P20). Kind of data set: Human NLRP3 speck formation assay (Test A), nigericin triggered ASC-speck formation in ASC-GFP reporter monocytes.
The target in data set [3] is T1, Human NLRP3.
The target of data set [4] is T1, Human NLRP3. This is another data set of the same source.
The next data set is described as follows: Solubility (Test E). The format is physicochemical.
A further data set deals with hERG (Homo sapiens (Human), UniProt Q12809). Kind of data set: hERG assay (Test D), SyncroPatch 384PE patch clamp, hERG-expressing CHO cells. The class given is cell-based. Particulars: rt. On the technique in general: The hERG channel carries a current that helps repolarise heart muscle cells.
Setting [5] is: Test C IC50, IL-1β release, THP-1 cells, LPS 2 μg/mL 24 h, BzATP 1 mM.

Structures are written as SMILES. pEC50, pIC50: −log10 of the molar value. In brackets after ≈: the same amount, converted by molar mass. Like-named read-outs stand apart in the source and are kept apart here.

T1 sequence (Q96P20 whole entry): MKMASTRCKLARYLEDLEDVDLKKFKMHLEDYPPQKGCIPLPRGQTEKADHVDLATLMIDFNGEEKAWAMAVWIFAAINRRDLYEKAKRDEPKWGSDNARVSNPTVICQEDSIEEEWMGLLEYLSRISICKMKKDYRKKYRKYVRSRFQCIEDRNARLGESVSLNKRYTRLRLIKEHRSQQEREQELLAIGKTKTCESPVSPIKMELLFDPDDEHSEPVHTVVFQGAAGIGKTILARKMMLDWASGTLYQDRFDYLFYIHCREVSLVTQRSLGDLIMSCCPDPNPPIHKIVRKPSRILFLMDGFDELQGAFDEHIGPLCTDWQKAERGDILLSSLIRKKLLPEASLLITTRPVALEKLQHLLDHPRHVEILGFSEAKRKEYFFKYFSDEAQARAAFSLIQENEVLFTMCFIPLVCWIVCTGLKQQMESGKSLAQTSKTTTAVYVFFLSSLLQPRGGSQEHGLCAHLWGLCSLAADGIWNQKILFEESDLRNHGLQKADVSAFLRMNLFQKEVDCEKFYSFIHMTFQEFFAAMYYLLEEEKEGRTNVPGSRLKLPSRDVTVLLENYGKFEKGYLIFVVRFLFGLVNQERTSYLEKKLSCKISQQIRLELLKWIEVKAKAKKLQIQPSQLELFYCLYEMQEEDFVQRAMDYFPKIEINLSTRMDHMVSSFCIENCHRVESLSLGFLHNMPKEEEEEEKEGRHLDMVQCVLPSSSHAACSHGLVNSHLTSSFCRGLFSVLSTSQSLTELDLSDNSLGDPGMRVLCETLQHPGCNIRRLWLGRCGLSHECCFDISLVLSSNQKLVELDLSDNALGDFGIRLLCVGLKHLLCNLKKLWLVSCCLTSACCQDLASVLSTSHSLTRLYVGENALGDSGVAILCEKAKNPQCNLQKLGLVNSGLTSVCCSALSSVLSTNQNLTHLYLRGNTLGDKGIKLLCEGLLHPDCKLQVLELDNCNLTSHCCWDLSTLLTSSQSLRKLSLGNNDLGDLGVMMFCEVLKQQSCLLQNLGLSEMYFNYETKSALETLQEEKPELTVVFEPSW
Chain of hERG (Q12809 whole entry): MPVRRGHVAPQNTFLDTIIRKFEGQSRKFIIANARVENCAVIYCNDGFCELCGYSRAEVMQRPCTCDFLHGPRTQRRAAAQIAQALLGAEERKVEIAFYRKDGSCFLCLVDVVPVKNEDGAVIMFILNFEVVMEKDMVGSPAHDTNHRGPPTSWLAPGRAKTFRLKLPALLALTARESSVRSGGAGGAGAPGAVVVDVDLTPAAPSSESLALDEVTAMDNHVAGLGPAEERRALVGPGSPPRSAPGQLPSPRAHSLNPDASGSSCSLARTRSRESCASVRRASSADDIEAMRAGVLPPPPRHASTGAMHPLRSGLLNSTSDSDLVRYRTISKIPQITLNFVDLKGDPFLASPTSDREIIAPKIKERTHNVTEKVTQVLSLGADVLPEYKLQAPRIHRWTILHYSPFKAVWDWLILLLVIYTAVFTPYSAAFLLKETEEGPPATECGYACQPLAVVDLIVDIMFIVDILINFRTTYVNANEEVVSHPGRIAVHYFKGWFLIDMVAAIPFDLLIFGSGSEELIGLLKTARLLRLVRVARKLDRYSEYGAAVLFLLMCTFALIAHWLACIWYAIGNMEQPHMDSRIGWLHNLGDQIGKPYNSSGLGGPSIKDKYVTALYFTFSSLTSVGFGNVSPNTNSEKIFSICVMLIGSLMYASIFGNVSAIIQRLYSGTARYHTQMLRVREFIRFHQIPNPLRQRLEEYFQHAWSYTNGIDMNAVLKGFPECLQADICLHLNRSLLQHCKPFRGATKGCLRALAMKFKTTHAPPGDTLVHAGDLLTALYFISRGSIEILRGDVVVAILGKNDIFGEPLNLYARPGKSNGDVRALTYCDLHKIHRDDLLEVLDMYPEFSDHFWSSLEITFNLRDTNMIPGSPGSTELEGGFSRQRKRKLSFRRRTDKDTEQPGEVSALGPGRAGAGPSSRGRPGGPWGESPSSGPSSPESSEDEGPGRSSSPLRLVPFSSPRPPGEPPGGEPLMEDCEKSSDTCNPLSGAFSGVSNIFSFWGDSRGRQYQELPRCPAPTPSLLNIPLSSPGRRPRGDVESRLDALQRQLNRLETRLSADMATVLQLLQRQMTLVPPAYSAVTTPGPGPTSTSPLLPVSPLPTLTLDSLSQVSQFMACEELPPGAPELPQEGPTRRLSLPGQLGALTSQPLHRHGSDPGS

Consider `Cc1ccc(-c2nnc(NC[C@H](O)CO)c3ccccc23)c(O)c1` [Example 11, (2S)-3-[[4-(2-hydroxy-4-methyl-phenyl)phthalazin-1-yl]amino]propane-1,2-diol], for which the solubility in data set [1] is over 65.1 µg/mL; in the data set “Solubility (Test E)” it was over 1000 µM. The compound also had a pEC50 at Human NLRP3 [2] of 6.68. Also, the pIC50 at Human NLRP3 [3] was 7.09; against Human NLRP3 [4] (setting [5]) it was 7.64.
`Oc1cccc(F)c1-c1nnc(N[C@@H]2CCCC[C@H]2O)c2cnccc12` [Example 76, 3-fluoro-2-(4-(((1R,2R)-2-hydroxycyclohexyl)amino)pyrido[3,4-d]pyridazin-1-yl)phenol]: the pEC50 at Human NLRP3 [2] was 6.89. The pIC50 against hERG is under 4.40.
Take `C[C@]1(O)C[C@@H](Nc2nnc(-c3c(O)cc(C(F)(F)F)cc3F)c3ccncc23)C1` [Example 67, 3-fluoro-2-(4-(((1s,3s)-3-hydroxy-3-methylcyclobutyl)amino)pyrido[3,4-d]pyridazin-1-yl)-5-(trifluoromethyl)phenol]: the solubility was 1.5 µg/mL (≈ 3.67 µM) in data set [1] and 3 µM (≈ 1.23 µg/mL) in “Solubility (Test E)”. In addition, the pEC50 at Human NLRP3 [2] was 7.17. The pIC50 is 7.62 at Human NLRP3 [3] and 8.10 at Human NLRP3 [4].
The corresponding values for `C[C@]1(O)C[C@@H](Nc2nnc(-c3ccc(Cl)c(F)c3O)c3ccncc23)C1` [Example 65, 3-chloro-2-fluoro-6-(4-(((1s,3s)-3-hydroxy-3-methylcyclobutyl)amino)pyrido[3,4-d]pyridazin-1-yl)phenol] are 1.1 µg/mL (≈ 2.93 µM), 11 µM (≈ 4.12 µg/mL), 6.43, 6.94 and 7.43.
Turning to `C[C@]1(O)C[C@@H](Nc2nnc(-c3c(O)cc(F)cc3F)c3ccncc23)C1` [Example 69, 3,5-difluoro-2-(4-(((1s,3s)-3-hydroxy-3-methylcyclobutyl)amino)pyrido[3,4-d]pyridazin-1-yl)phenol], the solubility in data set [1] turned out to be 13.6 µg/mL (≈ 38 µM); in the data set “Solubility (Test E)”, 29 µM (≈ 10.4 µg/mL). The pEC50 on Human NLRP3 [2] is 6.52. Further, the negative logarithm of the IC50 (pIC50) was 6.83 on Human NLRP3 [3] and 7.42 against Human NLRP3 [4].
For `OC[C@@H](O)CNc1nnc(-c2ccc(Cl)cc2O)c2ccccc12` [Example 5, (2S)-3-[[4-(4-chloro-2-hydroxy-phenyl)phthalazin-1-yl]amino]propane-1,2-diol], the solubility in data set [1] is 7.9 µg/mL (≈ 22.8 µM); in the data set “Solubility (Test E)” it was 6 µM (≈ 2.07 µg/mL). Besides, on Human NLRP3 [2], the pEC50 was 6.91. Further, the values for the pIC50 on Human NLRP3 [3] and against Human NLRP3 [4] (setting [5]) were 7.35 and 7.77, respectively.
`Oc1cc(C(F)(F)F)ccc1-c1nnc(N[C@H]2C[C@@H](O)C2)c2ccccc12` [Example 33, 2-(4-(((1s,3s)-3-hydroxycyclobutyl)amino)phthalazin-1-yl)-5-(trifluoromethyl)phenol] returned a solubility in data set [1] of 2.6 µg/mL (≈ 6.93 µM). The negative logarithm of the EC50 (pEC50) at Human NLRP3 [2] was 6.69. Also, the pIC50 at Human NLRP3 [3] is 6.91; on Human NLRP3 [4] (setting [5]) it was 7.34.
On Human NLRP3 [2], `Oc1cccc(F)c1-c1nnc(N[C@@H]2CCCC[C@H]2O)c2ccncc12` [Example 77, 3-fluoro-2-(1-(((1R,2R)-2-hydroxycyclohexyl)amino)pyrido[3,4-d]pyridazin-4-yl)phenol] gave a pEC50 of 5.53.
As to `Oc1cc(C(F)(F)F)ccc1-c1nnc(N[C@H]2CCC[C@@H](O)C2)c2cnccc12` [Example 82, 2-[4-[[(1S,3R)-3-hydroxycyclohexyl]amino]pyrido[3,4-d]pyridazin-1-yl]-5-(trifluoromethyl)phenol], the solubility in data set [1] came to 9.4 µg/mL (≈ 23.2 µM); in “Solubility (Test E)”, 34 µM (≈ 13.7 µg/mL).
`Oc1cc(F)ccc1-c1nnc(N[C@@H]2CC[C@@H](O)C2)c2cnccc12` [Example 85, 5-fluoro-2-(4-(((1R,3R)-3-hydroxycyclopentyl)amino)pyrido[3,4-d]pyridazin-1-yl)phenol]: the pEC50 at Human NLRP3 [2] is 6.32. This compound returned a solubility in the data set “Solubility (Test E)” of 68 µM (≈ 23.1 µg/mL).
As to `C[C@]1(O)C[C@H](Nc2nnc(-c3ccc(C(F)(F)F)cc3O)c3ccncc23)C1` [Example 84, 2-(4-(((1r,3r)-3-hydroxy-3-methylcyclobutyl)amino)pyrido[3,4-d]pyridazin-1-yl)-5-(trifluoromethyl)phenol], the figures for the solubility (in data set [1]; in the data set “Solubility (Test E)”) were over 78.1 µg/mL and 20 µM (≈ 7.81 µg/mL), respectively. The same compound had a pEC50 on Human NLRP3 [2] of 7.06. This compound also gave a pIC50 against Human NLRP3 [4] (setting [5]) of 7.57.
On to `Oc1cccc(F)c1-c1nnc(N[C@@H]2CC[C@H](O)C2)c2ccncc12` [Example 87, 3-fluoro-2-(1-(((1R,3S)-3-hydroxycyclopentyl)amino)pyrido[3,4-d]pyridazin-4-yl)phenol], for which the pEC50 on Human NLRP3 [2] is 5.21. Moreover, in “Solubility (Test E)”, the solubility came out at 25 µM (≈ 8.51 µg/mL).
In the case of `Oc1cc(C(F)(F)F)ccc1-c1nnc(N[C@@H]2CCCCC[C@H]2O)c2ccccc12` (racemic) [Example 27, rac-(1R,2R)-2-[[4-[2-hydroxy-4-(trifluoromethyl)phenyl]phthalazin-1-yl]amino]cycloheptanol], the solubility in data set [1] came to 2.1 µg/mL (≈ 5.03 µM); in “Solubility (Test E)”, 9 µM (≈ 3.76 µg/mL). In addition, at Human NLRP3 [2], the pEC50 was 6.25. For the same compound, the pIC50 on Human NLRP3 [4] (setting [5]) was 7.47.
Turning to `Oc1cc(C(F)(F)F)ccc1-c1nnc(N[C@H]2CC[C@@H](O)C2)c2ccccc12` (single isomer, unassigned) [Example 35], the “Test F Solubility” value in data set [1] was 10.9 µg/mL. On Human NLRP3 [2], this compound showed a pEC50 of 6.67. The figures for the pIC50 on Human NLRP3 [3] and against Human NLRP3 [4] (setting [5]) were 7.15 and 7.16, respectively.
With `OC[C@@H](O)CNc1nnc(-c2ccc(OC(F)(F)F)cc2O)c2ccccc12` [Example 6, (2S)-3-[[4-[2-hydroxy-4-(trifluoromethoxy)phenyl]phthalazin-1-yl]amino]propane-1,2-diol], the solubility in data set [1] is over 79.1 µg/mL; in “Solubility (Test E)” it was 130 µM (≈ 51.4 µg/mL). At Human NLRP3 [2], this compound had a pEC50 of 6.70. Also, the pIC50 against Human NLRP3 [3] was 7.00; against Human NLRP3 [4] (setting [5]), 7.40.
The corresponding values for `Oc1cc(C(F)(F)F)ccc1-c1nnc(N[C@@H]2CCC[C@H]2O)c2ccccc12` [Example 20, 2-[4-[[(1R,2R)-2-hydroxycyclopentyl]amino]phthalazin-1-yl]-5-(trifluoromethyl)phenol] are 8.6 µg/mL (≈ 22.1 µM), 206 µM (≈ 80.2 µg/mL), 6.79, 7.34 and 8.00.
With `Oc1cccc(F)c1-c1nnc(N[C@@H]2CC[C@@H](O)C2)c2ccncc12` [Example 86, 3-fluoro-2-(1-(((1R,3R)-3-hydroxycyclopentyl)amino)pyrido[3,4-d]pyridazin-4-yl)phenol], the pEC50 at Human NLRP3 [2] is 5.21.
Take `C[C@]1(O)C[C@@H](Nc2nnc(-c3ccc(Cl)cc3O)c3ccncc23)C1` [Example 68, 5-chloro-2-(4-(((1s,3s)-3-hydroxy-3-methylcyclobutyl)amino)pyrido[3,4-d]pyridazin-1-yl)phenol]: on Human NLRP3 [2], the pEC50 was 7.72. For the same compound, the pIC50 against Human NLRP3 [4] was 8.70. The same compound had a solubility in the data set “Solubility (Test E)” of 44 µM (≈ 15.7 µg/mL).
`Oc1cc(C(F)(F)F)ccc1-c1nnc(N[C@H]2C[C@H](O)C2)c2ccccc12` [Example 32, 2-(4-(((1r,3r)-3-hydroxycyclobutyl)amino)phthalazin-1-yl)-5-(trifluoromethyl)phenol] gave a solubility in data set [1] of 1.4 µg/mL (≈ 3.73 µM). The compound further had a pEC50 at Human NLRP3 [2] of 6.61. Moreover, the results for the pIC50 at Human NLRP3 [3] and on Human NLRP3 [4] (setting [5]) were 6.85 and 7.20, respectively.
`Oc1cc(C(F)(F)F)ccc1-c1nnc(N[C@H]2CCCC[C@@H]2O)c2ccccc12` [Example 26, 2-[4-[[(1S,2S)-2-hydroxycyclohexyl]amino]phthalazin-1-yl]-5-(trifluoromethyl)phenol]: the solubility stood at 8.3 µg/mL (≈ 20.6 µM) in data set [1] and 148 µM (≈ 59.7 µg/mL) in “Solubility (Test E)”. On Human NLRP3 [2], this compound had a pEC50 of 5.70. The compound also had a pIC50 at Human NLRP3 [4] (setting [5]) of 6.22.
`Oc1cc(F)ccc1-c1nnc(N[C@@H]2CCCC[C@H]2O)c2ccncc12` [Example 78, 5-fluoro-2-(1-(((1R,2R)-2-hydroxycyclohexyl)amino)pyrido[3,4-d]pyridazin-4-yl)phenol]: the pEC50 on Human NLRP3 [2] was 5.94. Besides, the solubility in “Solubility (Test E)” is 958 µM (≈ 340 µg/mL).
In the case of `Cc1ccc2c(NC[C@H](O)CO)nnc(-c3ccc(C(F)(F)F)cc3O)c2c1` [Example 15, (2S)-3-[[4-[2-hydroxy-4-(trifluoromethyl)phenyl]-6-methyl-phthalazin-1-yl]amino]propane-1,2-diol], the figures for the solubility (in data set [1]; in the data set “Solubility (Test E)”) were 14.7 µg/mL (≈ 37.4 µM) and 155 µM (≈ 61 µg/mL), respectively. At Human NLRP3 [2], this compound had a pEC50 of 6.66. For the same compound, the pIC50 on Human NLRP3 [4] (setting [5]) is 7.59.
In the same order, the values of `Oc1cc(C(F)(F)F)ccc1-c1nnc(N[C@H]2CCC[C@@H]2O)c2ccccc12` [Example 22, 2-[4-[[(1S,2S)-2-hydroxycyclopentyl]amino]phthalazin-1-yl]-5-(trifluoromethyl)phenol] are 9.2 µg/mL (≈ 23.6 µM), 172 µM (≈ 67 µg/mL), 5.62 and 6.73.
`Oc1cc(C(F)(F)F)ccc1-c1nnc(N[C@H]2CC[C@H](O)C2)c2ccccc12` [Example 17, 2-[4-[[(1S,3S)-3-hydroxycyclopentyl]amino]phthalazin-1-yl]-5-(trifluoromethyl)phenol] came in with a solubility in data set [1] of 27.5 µg/mL (≈ 70.6 µM). The compound further had a pEC50 on Human NLRP3 [2] of 6.54. Besides, the pIC50 against Human NLRP3 [3] is 6.77; at Human NLRP3 [4] (setting [5]), 7.07.
In data set [1], `C[C@]1(O)C[C@@H](Nc2nnc(-c3c(O)cccc3F)c3ccccc23)C1` [Example 36, 3-fluoro-2-(4-(((1s,3s)-3-hydroxy-3-methylcyclobutyl)amino)phthalazin-1-yl)phenol] displayed a solubility of 43 µg/mL (≈ 127 µM). For the same compound, the pIC50 on Human NLRP3 [4] was 6.01.

For the origin of these results see patent US11970463B2, “Compounds and their use” (ASTRAZENECA AB, priority 2021, dated 2024).
